Measured values as given in PubChem BioAssay AID1963441 (Molecular Pharmacology Branch, DTP, NCI, 2024).

Tested on: NCI-H1876 complex spheroid growth, % test/control
Assay: Anticancer human tumor NCI-H1876 cell line growth inhibition [Asc];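 further: compound exposure lasted 7 days starting three days after seeding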;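 on viability, T/C: 100% = DMSO vehicle control wells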
Conditions: for IC50: curve of first compound; for viability, T/C: stronger effect = lower value
Outline: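 Complex solid-tumor spheroids incorporating human endothelial and mesenchymal stem cells received single agents or combinations over half-log dilution ranges anchored to clinical Cmax.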

[1] = second compound 0.00316 µM, first compound 0.0316 µM
[2] = second compound 0.00316 µM, first compound 0.1 µM
[3] = second compound 0.01 µM, first compound 0.0316 µM
[4] = second compound 0.01 µM, first compound 0.1 µM
[5] = second compound 0.0316 µM, first compound 0.0316 µM
[6] = second compound 0.0316 µM, first compound 0.1 µM
[7] = second compound 0.1 µM, first compound 0.0316 µM
[8] = second compound 0.1 µM, first compound 0.1 µM
[9] = second compound 0.316 µM, first compound 0.0316 µM
[10] = second compound 0.316 µM, first compound 0.1 µM
[11] = second compound 1 µM, first compound 0.0316 µM
[12] = second compound 1 µM, first compound 0.1 µM

## Cn1ncnc1[C@H]1c2n[nH]c(=O)c3cc(F)cc(c23)N[C@@H]1c1ccc(F)cc1 + CNC(C)C(=O)NC1CN(S(=O)(=O)c2cccc(S(=O)(=O)N3CCC4CCC(C(=O)NC(c5ccccc5)c5ccccc5)N4C(=O)C(NC(=O)C(C)NC)C3)c2)CCC2CCC(C(=O)NC(c3ccccc3)c3ccccc3)N2C1=O
Second compound 0.00316 µM
  IC50: > 0.1 µM
Second compound 0.01 µM
  IC50: > 0.1 µM
Second compound 0.0316 µM
  IC50: > 0.1 µM
Second compound 0.1 µM
  IC50: > 0.1 µM
Second compound 0.316 µM
  IC50: > 0.1 µM
Second compound 1 µM
  IC50: > 0.1 µM
Second compound 0.00316 µM, first compound 0.000316 µM
  viability, T/C: 72.3%
Second compound 0.00316 µM, first compound 0.001 µM
  viability, T/C: 63.5%
Second compound 0.00316 µM, first compound 0.00316 µM
  viability, T/C: 68.2%
Second compound 0.00316 µM, first compound 0.01 µM
  viability, T/C: 55.5%
[1]
  viability, T/C: 51.2%
[2]
  viability, T/C: 54.3%
Second compound 0.01 µM, first compound 0.000316 µM
  viability, T/C: 92.8%
Second compound 0.01 µM, first compound 0.001 µM
  viability, T/C: 103%
Second compound 0.01 µM, first compound 0.00316 µM
  viability, T/C: 87.6%
Second compound 0.01 µM, first compound 0.01 µM
  viability, T/C: 95.2%
[3]
  viability, T/C: 96.5%
[4]
  viability, T/C: 95.8%
Second compound 0.0316 µM, first compound 0.000316 µM
  viability, T/C: 94.8%
Second compound 0.0316 µM, first compound 0.001 µM
  viability, T/C: 99%
Second compound 0.0316 µM, first compound 0.00316 µM
  viability, T/C: 104%
Second compound 0.0316 µM, first compound 0.01 µM
  viability, T/C: 112%
[5]
  viability, T/C: 109%
[6]
  viability, T/C: 103%
Second compound 0.1 µM, first compound 0.000316 µM
  viability, T/C: 105%
Second compound 0.1 µM, first compound 0.001 µM
  viability, T/C: 102%
Second compound 0.1 µM, first compound 0.00316 µM
  viability, T/C: 97.3%
Second compound 0.1 µM, first compound 0.01 µM
  viability, T/C: 91.5%
[7]
  viability, T/C: 97.4%
[8]
  viability, T/C: 102%
Second compound 0.316 µM, first compound 0.000316 µM
  viability, T/C: 97.7%
Second compound 0.316 µM, first compound 0.001 µM
  viability, T/C: 96.7%
Second compound 0.316 µM, first compound 0.00316 µM
  viability, T/C: 93.4%
Second compound 0.316 µM, first compound 0.01 µM
  viability, T/C: 110%
[9]
  viability, T/C: 115%
[10]
  viability, T/C: 97.3%
Second compound 1 µM, first compound 0.000316 µM
  viability, T/C: 114%
Second compound 1 µM, first compound 0.001 µM
  viability, T/C: 99.1%
Second compound 1 µM, first compound 0.00316 µM
  viability, T/C: 90.1%
Second compound 1 µM, first compound 0.01 µM
  viability, T/C: 116%
[11]
  viability, T/C: 103%
[12]
  viability, T/C: 104%

## O=C(c1cc(Cc2n[nH]c(=O)c3ccccc23)ccc1F)N1CCN(C(=O)C2CC2)CC1 + CNC(C)C(=O)NC1CN(S(=O)(=O)c2cccc(S(=O)(=O)N3CCC4CCC(C(=O)NC(c5ccccc5)c5ccccc5)N4C(=O)C(NC(=O)C(C)NC)C3)c2)CCC2CCC(C(=O)NC(c3ccccc3)c3ccccc3)N2C1=O
Second compound 0.00316 µM
  IC50: 4.73 µM
Second compound 0.01 µM
  IC50: > 10 µM
Second compound 0.0316 µM
  IC50: > 10 µM
Second compound 0.1 µM
  IC50: > 10 µM
Second compound 0.316 µM
  IC50: > 10 µM
Second compound 1 µM
  IC50: > 10 µM
[1]
  viability, T/C: 67%
[2]
  viability, T/C: 61.7%
Second compound 0.00316 µM, first compound 0.316 µM
  viability, T/C: 65.1%
Second compound 0.00316 µM, first compound 1 µM
  viability, T/C: 66.5%
Second compound 0.00316 µM, first compound 3.16 µM
  viability, T/C: 60.6%
Second compound 0.00316 µM, first compound 10 µM
  viability, T/C: 29.6%
[3]
  viability, T/C: 96%
[4]
  viability, T/C: 93%
Second compound 0.01 µM, first compound 0.316 µM
  viability, T/C: 105%
Second compound 0.01 µM, first compound 1 µM
  viability, T/C: 101%
Second compound 0.01 µM, first compound 3.16 µM
  viability, T/C: 96.5%
Second compound 0.01 µM, first compound 10 µM
  viability, T/C: 66.3%
[5]
  viability, T/C: 98.5%
[6]
  viability, T/C: 93.7%
Second compound 0.0316 µM, first compound 0.316 µM
  viability, T/C: 92%
Second compound 0.0316 µM, first compound 1 µM
  viability, T/C: 99.9%
Second compound 0.0316 µM, first compound 3.16 µM
  viability, T/C: 97.8%
Second compound 0.0316 µM, first compound 10 µM
  viability, T/C: 69.8%
[7]
  viability, T/C: 89.5%
[8]
  viability, T/C: 97.6%
Second compound 0.1 µM, first compound 0.316 µM
  viability, T/C: 103%
Second compound 0.1 µM, first compound 1 µM
  viability, T/C: 105%
Second compound 0.1 µM, first compound 3.16 µM
  viability, T/C: 95.6%
Second compound 0.1 µM, first compound 10 µM
  viability, T/C: 62.4%
[9]
  viability, T/C: 94.2%
[10]
  viability, T/C: 99.9%
Second compound 0.316 µM, first compound 0.316 µM
  viability, T/C: 116%
Second compound 0.316 µM, first compound 1 µM
  viability, T/C: 111%
Second compound 0.316 µM, first compound 3.16 µM
  viability, T/C: 104%
Second compound 0.316 µM, first compound 10 µM
  viability, T/C: 66.7%
[11]
  viability, T/C: 101%
[12]
  viability, T/C: 91.2%
Second compound 1 µM, first compound 0.316 µM
  viability, T/C: 97%
Second compound 1 µM, first compound 1 µM
  viability, T/C: 104%
Second compound 1 µM, first compound 3.16 µM
  viability, T/C: 101%
Second compound 1 µM, first compound 10 µM
  viability, T/C: 56.6%
